By IC50 is commonly meant the point on the concentration scale where inhibition reaches its midpoint. High values mean weaker potency, low ones greater potency.

Experimental findings from patent US20260049088A1, “TRICYCLIC HETEROCYCLIC DERIVATIVES, COMPOSITIONS AND USES THEREOF” (Danatlas Pharmaceuticals Co., Ltd., priority 2023, published 2026) are described below.

T1 sequence (Q86W56 whole entry): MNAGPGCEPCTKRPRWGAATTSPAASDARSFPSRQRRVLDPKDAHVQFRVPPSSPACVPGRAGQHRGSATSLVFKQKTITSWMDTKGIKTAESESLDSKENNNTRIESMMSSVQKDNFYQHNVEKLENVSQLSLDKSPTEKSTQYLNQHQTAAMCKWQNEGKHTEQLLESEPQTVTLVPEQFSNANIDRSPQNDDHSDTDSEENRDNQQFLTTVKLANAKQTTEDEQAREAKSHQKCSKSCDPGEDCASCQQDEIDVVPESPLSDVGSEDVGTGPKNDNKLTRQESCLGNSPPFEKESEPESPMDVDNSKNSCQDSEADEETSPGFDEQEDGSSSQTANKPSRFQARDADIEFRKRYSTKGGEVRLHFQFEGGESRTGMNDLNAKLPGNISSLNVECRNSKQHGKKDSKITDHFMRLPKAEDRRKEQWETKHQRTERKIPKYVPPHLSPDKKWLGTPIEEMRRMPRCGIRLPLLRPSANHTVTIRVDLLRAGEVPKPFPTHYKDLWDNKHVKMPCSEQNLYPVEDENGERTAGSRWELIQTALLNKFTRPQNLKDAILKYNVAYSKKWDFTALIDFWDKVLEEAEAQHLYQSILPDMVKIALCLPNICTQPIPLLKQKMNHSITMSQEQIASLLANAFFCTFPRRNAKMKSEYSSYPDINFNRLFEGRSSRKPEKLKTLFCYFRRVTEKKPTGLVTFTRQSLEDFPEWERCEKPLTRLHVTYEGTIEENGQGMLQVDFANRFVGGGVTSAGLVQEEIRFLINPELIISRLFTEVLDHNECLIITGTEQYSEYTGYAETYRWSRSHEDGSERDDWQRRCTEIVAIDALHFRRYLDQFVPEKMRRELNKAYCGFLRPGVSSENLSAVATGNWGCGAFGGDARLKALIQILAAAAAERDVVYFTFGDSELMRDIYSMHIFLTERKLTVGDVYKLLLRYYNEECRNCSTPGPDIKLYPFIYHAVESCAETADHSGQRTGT

The assay addresses T1, hPARG (Homo sapiens, UniProt Q86W56).
T1 construct: made in house; host or cells: E. coli
In words: PARG enzymatic activity assay (HTRF). Type of assay: biochemical. The settings on record: C-terminal His6-tag hPARG 65 pM, biotinylated-NAD ribosylated PARP1 substrate 8 nM. As to the method: HTRF assay was used to measure the ability of compounds to inhibit the activity of […] in vitro. C-terminal His6—tag PARG expressed in E. coli was purified and stored at −80° C. in aliquots. Assay measurements were performed with 1×buffer comprising 50 mM Tris pH 7.4, 0.1 mg/mL BSA, 3 mM EDTA, 0.4 mM EGTA, 1 mM DTT, 50 mM KCl and 0.01% Tween 20. Compounds dissolved in DMSO were plated into a 384-well assay plate (PerkinElmer, Catalog #: 6008280) in duplicate using a dispenser (Labcyte, Echo 665), and tested on a 10-point 4-fold serial dilution. Add 5 μL Enzyme mix [hPARG (C-terminal His6—tag, 4.2 μM), 65 pM final] to the test wells. The plates were covered and left to incubate for 60 minutes at RT before the addition of 5 μL substrate mix [biotinylated-NAD ribosylated PARP1 (6.1 μM), 8 nM final] to initiate reaction. After incubating 10 minutes at RT, add 2.5 μL Streptavidin-Eu cryptate (Cisbio, Catalog #: 610SAKLA) and 2.5 μL Mab anti 6HIS-XL665 (Cisbio, Catalog #: 61HISXLA) to the plate, and incubate for 60 minutes at RT. Read on a multimode plate reader (PerkinElmer, Envision 2015) in time-resolved fluorescence (TRF) mode, with excitation at 337 nm and emission at both 620 nm and 665 nm. Average HTRF signal of high control (Wells with 1% DMSO) was calculated and as Vehicle Control (VC). Average HTRF signal of low control (no Enzyme) was calculated and as Positive control (PC).
IC50 values were determined by fitting the data to the standard 4 parameters with Hill Slope using GraphPad Prism software.
(In TR-FRET formats the signal depends on donor and acceptor labels being close together.)
The compound `CN(CC(=O)N1CCOCC1)c1ncnc2c1c1ccc(S(=O)(=O)NC3(C#N)CC3)cc1n2-c1nnc(C(F)F)s1` [Example 20, N-(1-Cyanocyclopropyl)-9-(5-(difluoromethyl)-1,3,4-thiadiazol-2-yl)-4-(methyl(2-morpholino-2-oxoethyl)amino)-9H-pyrimido[4,5-b]indole-7-sulfonamide] yielded a 50% inhibitory concentration (IC50) of no more than 0.1 µM.

The compound `N#CC1(NS(=O)(=O)c2ccc3c4c(N5CCn6ncnc6C5)ncnc4n(-c4nnc(C(F)F)s4)c3c2)CC1` [Example 49, N-(1-Cyanocyclopropyl)-9-(5-(difluoromethyl)-1,3,4-thiadiazol-2-yl)-4-(5,6-dihydro-[1,2,4]triazolo[1,5-a]pyrazin-7(8H)-yl)-9H-pyrimido[4,5-b]indole-7-sulfonamide] yielded a concentration for half-maximal inhibition (IC50) of no more than 0.1 µM.

On to `CN(CC1CCCOC1)c1ncnc2c1c1ccc(S(=O)(=O)NC3(C#N)CC3)cc1n2-c1nnc(C(F)F)s1` (stereo not shown) [Example 68, N-(1-Cyanocyclopropyl)-9-(5-(difluoromethyl)-1,3,4-thiadiazol-2-yl)-4-(methyl((tetrahydro-2H-pyran-3-yl)methyl)amino)-9H-pyrimido[4,5-b]indole-7-sulfonamide], for which the IC50 was no more than 0.1 µM.

Consider `CN(c1ncnc2c1c1ccc(S(=O)(=O)NC3(C#N)CC3)cc1n2-c1nnc(C(F)F)s1)[C@H]1CCOC1` [Example 70, (S)-N-(1-Cyanocyclopropyl)-9-(5-(difluoromethyl)-1,3,4-thiadiazol-2-yl)-4-(methyl(tetrahydrofuran-3-yl)amino)-9H-pyrimido[4,5-b]indole-7-sulfonamide], for which the 50% inhibitory concentration (IC50) fell in the range of 0.1 to 1 µM.

`CCN(CCN1CCOCC1)c1ncnc2c1c1ccc(S(=O)(=O)NC3(C#N)CC3)cc1n2-c1nnc(C(F)F)s1` [Example 18, N-(1-Cyanocyclopropyl)-9-(5-(difluoromethyl)-1,3,4-thiadiazol-2-yl)-4-(ethyl(2-morpholinoethyl)amino)-9H-pyrimido [4,5-b]indole-7-sulfonamide] gave a half-inhibitory concentration (IC50) of no more than 0.1 µM.

For the compound `CN1CCN(c2ncnc3c2c2ccc(S(=O)(=O)NC4(C#N)CC4)cc2n3-c2nnc(C(F)F)s2)C[C@@H]1CO` [Example 43, (R)-N-(1-Cyanocyclopropyl)-9-(5-(difluoromethyl)-1,3,4-thiadiazol-2-yl)-4-(3-(hydroxymethyl)-4-methylpiperazin-1-yl)-9H-pyrimido[4,5-b]indole-7-sulfonamide], the half-inhibitory concentration (IC50) was no more than 0.1 µM.

Turning to `N#CC1(NS(=O)(=O)c2ccc3c4c(NCCN5CCOCC5)ncnc4n(-c4nnc(C(F)F)s4)c3c2)CC1` [Example 16, N-(1-Cyanocyclopropyl)-9-(5-(difluoromethyl)-1,3,4-thiadiazol-2-yl)-4-((2-morpholinoethyl)amino)-9H-pyrimido[4,5-b]indole-7-sulfonamide], the half-maximal inhibitory concentration (IC50) is no more than 0.1 µM.

Consider `CCN(CC)CCN(C)c1ncnc2c1c1ccc(S(=O)(=O)NC3(C#N)CC3)cc1n2-c1nnc(C(F)F)s1` [Example 15, N-(1-Cyanocyclopropyl)-4-((2-(diethylamino)ethyl)(methyl)amino)-9-(5-(difluoromethyl)-1,3,4-thiadiazol-2-yl)-9H-pyrimido[4,5-b]indole-7-sulfonamide], for which the IC50 was no more than 0.1 µM.

`CN(C[C@@H]1COCCN1C)c1ncnc2c1c1ccc(S(=O)(=O)NC3(C#N)CC3)cc1n2-c1nnc(C(F)F)s1` [Example 65, (R)-N-(1-Cyanocyclopropyl)-9-(5-(difluoromethyl)-1,3,4-thiadiazol-2-yl)-4-(methyl((4-methylmorpholin-3-yl)methyl)amino)-9H-pyrimido[4,5-b]indole-7-sulfonamide] returned a half-inhibitory concentration (IC50) of no more than 0.1 µM.

Take `CN(CCN1CCCC1=O)c1ncnc2c1c1ccc(S(=O)(=O)NC3(C#N)CC3)cc1n2-c1nnc(C(F)F)s1` [Example 61, N-(1-Cyanocyclopropyl)-9-(5-(difluoromethyl)-1,3,4-thiadiazol-2-yl)-4-(methyl(2-(2-oxopyrrolidin-1-yl)ethyl)amino)-9H-pyrimido[4,5-b]indole-7-sulfonamide]: the IC50 lay within 0.1 to 1 µM.
